In US7846930B2, “Diaryl-substituted tetrahydroisoquinolines as histamine H3 receptor and serotonin transporter modulators” (Janssen Pharmaceutica NV, priority 2007, dated 2010) one finds Ki data, which are given here for 15 compounds.

For one assay, the target named is T1, Rat brain SERT (Rattus norvegicus, UniProt P31652).
T1 construct: A rat brain without cerebellum (Zivic Laboratories, Inc.-Pittsburgh, Pa.) was homogenized; tissue Zivic Laboratories, Inc; host or cells: rat brain without cerebellum, membrane preparation
T1 sequence (P31652 whole entry): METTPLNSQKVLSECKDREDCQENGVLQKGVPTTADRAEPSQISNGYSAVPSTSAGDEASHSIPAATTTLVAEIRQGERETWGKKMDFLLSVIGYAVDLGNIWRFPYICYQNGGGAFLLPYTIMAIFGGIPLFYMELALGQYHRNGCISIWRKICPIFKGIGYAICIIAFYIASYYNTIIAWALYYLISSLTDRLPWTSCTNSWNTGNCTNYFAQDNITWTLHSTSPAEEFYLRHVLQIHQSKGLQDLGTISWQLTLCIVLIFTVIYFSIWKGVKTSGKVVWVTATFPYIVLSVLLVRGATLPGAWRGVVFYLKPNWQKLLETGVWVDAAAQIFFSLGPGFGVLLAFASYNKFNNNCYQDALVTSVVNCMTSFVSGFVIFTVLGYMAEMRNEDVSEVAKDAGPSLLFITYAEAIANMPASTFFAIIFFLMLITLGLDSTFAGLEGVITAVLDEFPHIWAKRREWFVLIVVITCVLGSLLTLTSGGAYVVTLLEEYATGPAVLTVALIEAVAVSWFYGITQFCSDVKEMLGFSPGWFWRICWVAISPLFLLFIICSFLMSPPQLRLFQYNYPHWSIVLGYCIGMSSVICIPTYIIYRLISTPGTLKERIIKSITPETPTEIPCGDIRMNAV
The assay can be described thus: Rat brain SERT [3H]-citalopram binding. To be noted: rat brain membranes, 0.6 nM [3H]-Citalopram, 60 min at 25° C. The method, then: A rat brain without cerebellum (Zivic Laboratories, Inc.-Pittsburgh, Pa.) was homogenized in a 52.6 mM Tris pH 8/126.4 mM NaCl/5.26 mM KCl mixture and centrifuged at 1,000 rpm for 5 min. The supernatant was removed and re-centrifuged at 15,000 rpm for 30 min. Pellets were re-homogenized in a 52.6 mM Tris pH8/126.4 mM NaCl/5.26 mM KCl mixture. Membranes were incubated with 0.6 nM [^3H]-Citalopram plus/minus test compounds for 60 min at 25° C. and harvested by rapid filtration over GF/C glass fiber filters (pretreated with 0.3% polyethylenimine) followed by four washes with ice-cold buffer. Nonspecific binding was defined in the presence of 100 μM fluoxetine. IC50 values were determined by a single site curve-fitting program (GraphPad, San Diego, Calif.) and converted to Ki values based on a [^3H]-Citalopram Kd of 0.6 nM and a ligand concentration of 0.6 nM.

Assay [1] deals with T2, cloned human H3 receptors, stably expressed in SK-N-MC cells (Homo sapiens, UniProt Q9Y5N1).
T2 construct: expressed in transfected cells
T2 sequence (Q9Y5N1 whole entry): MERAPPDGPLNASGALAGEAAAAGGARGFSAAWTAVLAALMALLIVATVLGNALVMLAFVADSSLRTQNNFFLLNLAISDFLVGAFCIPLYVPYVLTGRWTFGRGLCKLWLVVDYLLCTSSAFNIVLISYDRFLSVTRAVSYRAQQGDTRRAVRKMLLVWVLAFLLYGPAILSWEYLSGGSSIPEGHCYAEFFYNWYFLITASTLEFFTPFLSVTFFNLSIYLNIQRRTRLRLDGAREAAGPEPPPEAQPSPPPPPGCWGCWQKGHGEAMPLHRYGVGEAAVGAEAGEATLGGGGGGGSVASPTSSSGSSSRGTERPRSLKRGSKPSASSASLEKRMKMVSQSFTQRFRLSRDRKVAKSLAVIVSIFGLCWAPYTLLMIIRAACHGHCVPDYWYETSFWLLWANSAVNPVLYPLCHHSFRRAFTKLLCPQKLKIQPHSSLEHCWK
The assay can be described thus: H3 receptor binding. Here is the method: Binding of compounds to the cloned human H3 receptors, stably expressed in SK-N-MC cells, was performed as described by Barbier, A. J. et al. (Br. J. Pharmacol. 2004, 143(5), 649-661).

In assay [2] the target is T3, human SERT (HEK293 membranes) (Homo sapiens, UniProt P31645).
T3 construct: expressed in transfected cells; host or cells: HEK293
T3 sequence (P31645 whole entry): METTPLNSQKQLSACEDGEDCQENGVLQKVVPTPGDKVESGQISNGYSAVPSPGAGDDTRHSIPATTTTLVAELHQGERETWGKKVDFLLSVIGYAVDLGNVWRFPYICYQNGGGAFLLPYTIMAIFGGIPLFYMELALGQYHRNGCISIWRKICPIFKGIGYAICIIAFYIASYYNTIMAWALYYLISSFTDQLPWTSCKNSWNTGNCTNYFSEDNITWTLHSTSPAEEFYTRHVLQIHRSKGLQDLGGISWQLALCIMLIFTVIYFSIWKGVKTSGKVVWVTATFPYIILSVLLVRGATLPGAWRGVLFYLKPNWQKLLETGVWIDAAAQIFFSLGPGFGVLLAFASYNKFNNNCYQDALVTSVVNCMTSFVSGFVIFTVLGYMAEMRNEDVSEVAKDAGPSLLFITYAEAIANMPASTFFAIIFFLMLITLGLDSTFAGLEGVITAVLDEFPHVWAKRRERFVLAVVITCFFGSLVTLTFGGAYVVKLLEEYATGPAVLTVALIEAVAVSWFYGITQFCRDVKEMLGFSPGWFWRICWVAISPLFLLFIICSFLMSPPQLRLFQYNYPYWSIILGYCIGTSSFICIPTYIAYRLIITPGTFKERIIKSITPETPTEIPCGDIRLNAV
Kind of assay: Human SERT 3H-citalopram binding. To be noted: HEK293 membranes expressing human SERT, rt 1 h. Here is the method:
Homogenized HEK293 (Human Embryonic Kidney) membranes expressing the human SERT were incubated with ^3H-citalopram (SERT) at rt for 1 h in 50 mM Tris, 120 mM NaCl, 5 mM KCl (pH 7.4). Nonspecific binding was determined in the presence of 10 μM fluoxetine for the SERT. The membranes were washed and the radioactivity was counted as above. Calculations for Ki at the SERT were based on a Kd value for ^3H-citalopram and a ligand concentration of 3.1 nM.

Where a name gives a salt, the structure may show the parent alone.

The Ki is the equilibrium dissociation constant of an inhibitor or competing ligand from its target. High values mean lower affinity, low ones higher affinity. On to `CSc1ccc(C2CN(C)Cc3cc(Oc4cccc(CN5CCCCC5)n4)ccc32)cc1` (stereo not shown) [Example 2, 2-Methyl-4-(4-methylsulfanyl-phenyl)-7-(6-piperidin-1-ylmethyl-pyridin-2-yloxy)-1,2,3,4-tetrahydro-isoquinoline Trifluoroacetic Acid Salt], for which the Ki at Rat brain SERT was found to be 11.7 nM; in assay [1], 51 nM; in assay [2] it was 22 nM.
For the compound `CSc1ccc(C2CN(C)Cc3cc(Oc4cccc(CN5CCCCC5)c4)ccc32)cc1` (stereo not shown) [Example 1A, 2-Methyl-4-(4-methylsulfanyl-phenyl)-7-(3-piperidin-1-ylmethyl-phenoxy)-1,2,3,4-tetrahydro-isoquinoline trifluoroacetic acid salt], the Ki on Rat brain SERT stood at 11.7 nM; in assay [1], 18 nM; in assay [2], 17.7 nM.
For the compound `CSc1ccc(C2CN(C)Cc3cc(Oc4cc(CN5CCCCC5)ccn4)ccc32)cc1` (stereo not shown) [Example 5, 2-Methyl-4-(4-methylsulfanyl-phenyl)-7-(4-piperidin-1-ylmethyl-pyridin-2-yloxy)-1,2,3,4-tetrahydro-isoquinoline], the Ki is 8.7 nM at Rat brain SERT, 34.3 nM in assay [1] and 2.4 nM in assay [2].
`CSc1ccc(C2CN(C)Cc3cc(Oc4ccc(CN5CCOCC5)cn4)ccc32)cc1` (stereo not shown) [Example 10, 2-Methyl-4-(4-methylsulfanyl-phenyl)-7-(5-morpholin-4-ylmethyl-pyridin-2-yloxy)-1,2,3,4-tetrahydro-isoquinoline]: the Ki was determined as 11 nM at Rat brain SERT, 260 nM in assay [1] and 7.9 nM in assay [2].
For `CSc1ccc(C2CN(C)Cc3cc(Oc4ccc(CN5CCCCC5)cc4)ccc32)cc1` (stereo not shown) [Example 9, 2-Methyl-4-(4-methylsulfanyl-phenyl)-7-(4-piperidin-1-ylmethyl-phenoxy)-1,2,3,4-tetrahydro-isoquinoline], in that order: 4.3 nM, 22.7 nM and 3.8 nM.
As to `CSc1ccc(C2CN(C)Cc3cccc(Oc4cncc(CN5CCCCC5)c4)c32)cc1` (stereo not shown) [Example 4B, 2-Methyl-4-(4-methylsulfanyl-phenyl)-5-(5-piperidin-1-ylmethyl-pyridin-3-yloxy)-1,2,3,4-tetrahydro-isoquinoline Trifluoroacetic Acid Salt], the Ki worked out at 174 nM on Rat brain SERT, 511 nM in assay [1] and 262 nM in assay [2].
For `CSc1ccc(C2CN(C)Cc3cc(Oc4ccc(CN5CCCCC5)cn4)ccc32)cc1` (stereo not shown) [Example 7, 2-Methyl-4-(4-methylsulfanyl-phenyl)-7-(5-piperidin-1-ylmethyl-pyridin-2-yloxy)-1,2,3,4-tetrahydro-isoquinoline], in that order: 4.5 nM, 8.2 nM and 2.3 nM.
In the same order, the values of `CSc1ccc(C2CN(C)Cc3cc(Oc4ccc(CN5CCCCC5)nc4)ccc32)cc1` (stereo not shown) [Example 8, 2-Methyl-4-(4-methylsulfanyl-phenyl)-7-(6-piperidin-1-ylmethyl-pyridin-3-yloxy)-1,2,3,4-tetrahydro-isoquinoline] are 7.5 nM, 24.3 nM and 8 nM.
`CSc1ccc(C2CN(C)Cc3cc(Oc4nc(CN5CCOCC5)cs4)ccc32)cc1` (stereo not shown) [Example 11, 2-Methyl-4-(4-methylsulfanyl-phenyl)-7-(4-morpholin-4-ylmethyl-thiazol-2-yloxy)-1,2,3,4-tetrahydro-isoquinoline] gave an inhibitory constant (Ki) in assay [1] of 201 nM. This counts as sub-micromolar.
As to `CSc1ccc(C2CN(C)Cc3cc(Oc4nc(CN5CCCCC5)cs4)ccc32)cc1` (stereo not shown) [Example 6, 2-Methyl-4-(4-methylsulfanyl-phenyl)-7-(4-piperidin-1-ylmethyl-thiazol-2-yloxy)-1,2,3,4-tetrahydro-isoquinoline], the values for the Ki (on Rat brain SERT; in assay [1]; in assay [2]) were 5.2 nM, 20.7 nM and 4.3 nM, respectively.
For `CSc1ccc(C2CN(C)Cc3cc(Oc4ncc(CN5CCCCC5)s4)ccc32)cc1` (stereo not shown) [Example 13, 2-Methyl-4-(4-methylsulfanyl-phenyl)-7-(5-piperidin-1-ylmethyl-thiazol-2-yloxy)-1,2,3,4-tetrahydro-isoquinoline], in that order: 4 nM, 20.7 nM and 3.2 nM.
Turning to `CSc1ccc(C2CN(C)Cc3cccc(Oc4cccc(CN5CCCCC5)c4)c32)cc1` (stereo not shown) [Example 1B, 2-Methyl-4-(4-methylsulfanyl-phenyl)-5-(3-piperidin-1-ylmethyl-phenoxy)-1,2,3,4-tetrahydro-isoquinoline Trifluoroacetic Acid Salt], the Ki was found to be 403 nM at Rat brain SERT, 253 nM in assay [1] and 616 nM in assay [2].
As to `CSc1ccc(C2CN(C)Cc3cc(Oc4ccnc(CN5CCCCC5)c4)ccc32)cc1` (stereo not shown) [Example 3A, 2-2-Methyl-4-(4-methylsulfanyl-phenyl)-7-(2-piperidin-1-ylmethyl-pyridin-4-yloxy)-1,2,3,4-tetrahydro-isoquinoline Trifluoroacetic Acid Salt], the Ki was 25.7 nM on Rat brain SERT, 323 nM in assay [1] and 10.4 nM in assay [2].
In the case of `CSc1ccc(C2CN(C)Cc3cccc(Oc4ccnc(CN5CCCCC5)c4)c32)cc1` (stereo not shown) [Example 3B, 2-Methyl-4-(4-methylsulfanyl-phenyl)-5-(2-piperidin-1-ylmethyl-pyridin-4-yloxy)-1,2,3,4-tetrahydro-isoquinoline Trifluoroacetic Acid Salt], the Ki at Rat brain SERT was 182 nM; in assay [1], 265 nM; in assay [2], 157 nM.
In the same order, the values of `CSc1ccc(C2CN(C)Cc3cc(Oc4ccc(CN5CCC(F)CC5)cn4)ccc32)cc1` (stereo not shown) [Example 12, 7-[5-(4-Fluoro-piperidin-1-ylmethyl)-pyridin-2-yloxy]-2-methyl-4-(4-methylsulfanyl-phenyl)-1,2,3,4-tetrahydro-isoquinoline] are 14.3 nM, 110 nM and 6.5 nM.
